Reference: paper PMC6305410, “High-Throughput Screening for Bacterial Glycosyltransferase Inhibitors” (Frontiers in Cellular and Infection Microbiology, 2018)

Target: T1, NleB1 (Escherichia coli, UniProt Q8XBX8)
T1 construct: GST-EHEC-NleB1 in pET42a (GST/His tagged), expressed in E. coli BL21 (DE3), nickel purified; some tag cleavage noted
Conditions: inhibitor; for % NleB1 inhibition (µM compound) / 10: 10 µM; for % NleB1 inhibition (µM compound) / 20: 20 µM; for % NleB1 inhibition (µM compound) / 40: 40 µM; for % NleB1 inhibition (µM compound) / 80: 80 µM; for % NleB1 inhibition (µM compound) / 160: 160 µM

SMILES	% NleB1 inhibition (µM compound) / 10 [%]	% NleB1 inhibition (µM compound) / 20 [%]	% NleB1 inhibition (µM compound) / 40 [%]	% NleB1 inhibition (µM compound) / 80 [%]	% NleB1 inhibition (µM compound) / 160 [%]
O=c1cc(-c2ccccc2Cl)oc2c(NS(=O)(=O)c3cc(Cl)cc(Cl)c3O)ccc(O)c12 [KUC100066N]	43.0	71.1	84.8	96.0	96.8
Cc1cccc(C(=O)N2CCC(=O)N([C@H](COCc3ccc(Cl)cc3)Cc3ccccc3)CC2)c1 [KUC100143N]	35.9	38.0	39.2	42.0	63.3
O=C1CCN(S(=O)(=O)c2ccccc2)CCN1CCOCc1ccc(Cl)cc1 [KUC100988N]	31.9	14.5	26.3	28.3	36.0
O=C1CN(Cc2ccccc2)S(=O)(=O)c2ccccc21 [KUC101184N]	2.9	18.5	23.8	33.3	44.7
COc1ccc(C2CC(O)(c3ccccc3)Oc3c(C)ccc(C)c32)cc1 (centres unmarked) [KUC101437N]	10.8	13.9	23.3	39.1	57.3
COc1ccc(C(CCN2CCOCC2)c2c(OC)cc(OC)c3c2OC(=O)CC3c2ccc(OC)cc2)cc1 (centres unmarked) [KUC101459N]	14.9	26.2	9.4	18.8	44.1
CCCCCCC(=O)N1C/C=C\C(c2ccc(OC)cc2)N(Cc2ccc(F)cc2)C(=O)[C@@H]1Cc1ccccc1 (some centres unmarked) [KUC101608N]	15.6	17.3	23.2	30.3	32.5
CCCCCCCCN1[C@@H](CC(=O)OC)c2cc(F)ccc2S1(=O)=O [KUC101907N]	23.0	22.1	22.4	29.9	42.2
CCCCCCCCCCCCN1[C@@H](CC(=O)O)c2cc(C(F)(F)F)ccc2S1(=O)=O [KUC101994N]	40.6	48.0	60.1	80.4	94.3
COc1cccc(N2[C@@H](CC(=O)O)c3ccc(/C=C/C(=O)O)cc3S2(=O)=O)c1 [KUC102262N]	27.6	34.2	35.9	41.7	46.5
CCCCCCCCN1[C@@H](CC(=O)OC)c2ccc(/C=C/C(=O)OC)cc2S1(=O)=O [KUC102268N]	25.3	20.8	27.1	33.3	27.9
CC(C)CN1CCC(=O)N(CCC#N)CC1 [KUC102485N]	16.0	23.1	17.6	19.0	20.8
O=C(O)c1cc(-c2ccc(-c3c(-c4ccco4)noc3-c3ccccc3)cc2)nc2ccccc12 [KUC102644N]	50.1	58.4	75.0	89.4	97.2
O=S1(=O)CCOC[C@H](c2ccccc2)N1Cc1ccc(Cl)c(Cl)c1 [KUC102739N]	16.3	16.2	25.3	35.0	45.5
O=C(NC1CCC(=O)N(CCSc2ccccc2)CC1)OCc1ccccc1 (centres unmarked) [KUC102830N]	16.9	20.9	21.9	25.7	38.2
O=C1CCC[C@@H]2Cc3nc4ccc(O)cc4cc3[C@@H]3CCN1[C@H]23 [KUC103038N]	26.7	35.2	34.4	47.9	76.1
C=CCN1CC[C@@H](O)C(=C)S1(=O)=O [KUC103094N]	19.8	23.8	19.2	18.2	18.0
C[C@@H]1NC(=O)O[C@H]1c1ccco1 [KUC103195N]	23.8	25.6	28.1	33.5	23.9
O=C1CS(=O)(=O)N(Cc2cccc(F)c2)c2ccc(Br)cc21 [KUC103319N]	32.5	37.2	49.0	68.8	81.7
C[C@@H](NS(=O)(=O)c1cc(Cl)ccc1F)[C@H](O)c1ccccc1 [KUC103993N]	27.5	31.8	31.8	34.5	37.0
COc1cc(C(C)=O)ccc1OCc1cn(CC(=O)c2ccc(O)cc2)nn1 [KUC104076N]	32.0	44.9	45.1	61.1	75.5
O=C(Cn1cc(COc2ccccc2C(F)(F)F)nn1)c1ccc(O)cc1 [KUC104085N]	36.1		51.8	63.6	78.4
O=C(Cn1cc(COc2cccc([N+](=O)[O-])c2)nn1)c1ccc(O)cc1 [KUC104086N]	24.5	24.5	34.2	32.8	50.5
CC(=O)c1ccc(OCc2cn(CC(=O)c3ccc(O)cc3)nn2)c(F)c1 [KUC104088N]	45.4	47.7	59.8	76.5	92.0
Cc1cccc(C)c1OCc1cn(CC(=O)c2ccc(O)cc2)nn1 [KUC104090N]	36.8	44.9	53.2	69.2	85.8
O=C(Cn1cc(COc2c(F)c(F)cc(F)c2F)nn1)c1ccc(O)cc1 [KUC104092N]	39.5	42.1	57.8	67.2	80.6
CCCC(=O)c1ccc(OCc2cn(CC(=O)c3ccc(O)cc3)nn2)cc1 [KUC104099N]	32.9	42.2	45.2	62.5	77.5
